Numbered stars: 1 amine (or outer) side, 2 acyl side, 3 side chain; on linkers, the order of the positions; unused ones are H or OH. Bridge positions count the residues as written; N and C are the ends. Square brackets hold non-standard residues; d marks the D form. Peptide text beside a SMILES is read from it. Trp(5-F) = N[C@@H](Cc1c[nH]c2ccc(F)cc12)C(=O)O; X3 = O=C(CCSCc1cc(F)cc(CSCCN[*:1])c1)[*:2]; Lys(Me3) = C[N+](C)(C)CCCC[C@H](N)C(=O)O; X1 = O=C(CCSCc1cccc(CSCCN[*:1])c1)[*:2]; mXylylene = c1cc(C[*:1])cc(C[*:2])c1; αMeP = C[C@@]1(C(=O)O)CCCN1; Mpa = O=C(O)CCS
Legend:
[1] = biological target: Proprotein convertase subtilisin/kexin type 9 (Homo sapiens, UniProt Q8NBP7); experiment: Inhibition of AlexaFluor647-tagged cyclic peptide binding to avi-tagged-biotinylated human PCSK9 measured after 2 hrs by Lance Streptavidin Europium based FRET assay
[2] = Enzymatic stability assessed as bovine pancreatic trypsin-mediated compound hydrolysis by measuring parent compound remaining at 100 uM incubated for 1 hr by LC-MS/MS analysis; format: ADME, Bos taurus; conditions: cattle, read-out: Stabilty
[3] = Enzymatic stability assessed as porcine pepsin-mediated compound hydrolysis by measuring parent compound remaining at 100 uM incubated for 1 hr by LC-MS/MS analysis; format: ADME, Sus scrofa; conditions: pig, read-out: Stabilty
[4] = Half life in cynomolgus monkey whole blood at 100 uM by LC-MS/MS analysis; format: ADME, tissue-based, Macaca fascicularis
Chymotrypsinogen A = Chymotrypsinogen A (Bos taurus, UniProt P00766); experiment: Enzymatic stability assessed as bovine pancreatic alpha-chymotrypsin-mediated compound hydrolysis by measuring parent compound remaining at 100 uM incubated for 1 hr by LC-MS/MS analysis; format: ADME; conditions: cattle, read-out: Stabilty
[5] = Half life in C57BL/6 mouse whole blood at 100 uM by LC-MS/MS analysis; format: ADME, tissue-based
[6] = biological target: Chymotrypsin-like elastase family member 1 (Sus scrofa, UniProt P00772); experiment: Enzymatic stability assessed as porcine type 4 pancreatic elastase-mediated compound hydrolysis by measuring parent compound remaining at 100 uM incubated for 1 hr by LC-MS/MS analysis; format: ADME; conditions: pig, read-out: Stabilty
[7] = Clearance in C57BL/6 mouse at 1 mg/kg, iv by LC-MS/MS analysis; format: ADME, organism-based; conditions: in vivo
[8] = AUC (0 to X) in C57BL/6 mouse at 1 mg/kg, iv by LC-MS/MS analysis; format: ADME, organism-based; parameters: dose 1 mg/kg; conditions: in vivo
[9] = Volume of distribution at steady state in C57BL/6 mouse at 1 mg/kg, iv by LC-MS/MS analysis; format: ADME, organism-based; conditions: in vivo, read-out: Vdss
[10] = Protein binding in mouse plasma at 2.5 uM measured after 4 hrs by equilibrium dialysis based LC-MS/MS analysis; format: ADME, cell-free; conditions: read-out: PPB (converted)
PCSK9/LDLR = PCSK9/LDLR (Homo sapiens, UniProt Q8NBP7); experiment: Inhibition of avi-tagged-biotinylated human PCSK9 interaction with His-tagged human LDLR EGFa domain by LANCE Ulight Streptavidin based TR-FRET assay; format: protein assay
[11] = Half life in C57BL/6 mouse at 1 mg/kg, iv by LC-MS/MS analysis; format: ADME, organism-based; conditions: in vivo
[12] = AUC (0 to infinity) in C57BL/6 mouse at 1 mg/kg, iv by LC-MS/MS analysis; format: ADME, organism-based; parameters: route intravenous, time infinity, dose 1 mg/kg; conditions: in vivo; for AUC(0-inf): C57BL/6, mouse
[13] = Cytotoxicity against Wistar rat isolated peritoneal cells assessed as reduction in cell viability up to 60 uM measured after 30 mins; format: cell-based; conditions: peritoneal macrophage cell, 0.5 h
[14] = Induction of mast cell degranulation in Wistar rat isolated peritoneal cells assessed as effect on histamine release measured after 30 mins; format: tissue-based
[15] = Protein binding in Wistar Han rat plasma; format: ADME, cell-free; conditions: read-out: PPB (converted)
[16] = Volume of distribution at steady state in Wistar Han rat at 1 mg/kg, iv by LC-MS/MS analysis; format: ADME, organism-based; conditions: in vivo, read-out: Vdss
[17] = Half life in Wistar Han rat at 1 mg/kg, iv by LC-MS/MS analysis; format: ADME, organism-based; conditions: in vivo
[18] = AUC (0 to X) in Wistar Han rat at 1 mg/kg, iv by LC-MS/MS analysis; format: ADME, organism-based; parameters: dose 1 mg/kg; conditions: in vivo
[19] = AUC (0 to infinity) in Wistar Han rat at 1 mg/kg, iv by LC-MS/MS analysis; format: ADME, organism-based; parameters: route intravenous, time infinity, dose 1 mg/kg; conditions: Wistar Han, in vivo
[20] = Clearance in Wistar Han rat at 1 mg/kg, iv by LC-MS/MS analysis; format: ADME, organism-based; conditions: in vivo
[21] = Rattus norvegicus, Wistar, Mast cell, 0.5 h, read-out: EC50

Chymotrypsin-like elastase family member 1, sequence (P00772 whole entry): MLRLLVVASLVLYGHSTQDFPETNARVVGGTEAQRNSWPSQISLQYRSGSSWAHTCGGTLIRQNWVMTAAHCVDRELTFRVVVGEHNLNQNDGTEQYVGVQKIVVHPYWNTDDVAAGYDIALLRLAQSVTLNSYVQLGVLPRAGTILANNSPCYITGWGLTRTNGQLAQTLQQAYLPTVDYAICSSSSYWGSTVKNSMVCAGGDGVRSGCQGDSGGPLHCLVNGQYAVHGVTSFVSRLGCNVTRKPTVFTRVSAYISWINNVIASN
Proprotein convertase subtilisin/kexin type 9, sequence (Q8NBP7 31-152 limits assumed): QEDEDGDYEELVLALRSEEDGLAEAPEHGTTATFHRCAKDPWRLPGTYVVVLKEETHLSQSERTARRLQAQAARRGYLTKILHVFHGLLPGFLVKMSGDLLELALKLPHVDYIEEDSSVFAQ
Proprotein convertase subtilisin/kexin type 9, sequence (Q8NBP7 153-692 limits assumed): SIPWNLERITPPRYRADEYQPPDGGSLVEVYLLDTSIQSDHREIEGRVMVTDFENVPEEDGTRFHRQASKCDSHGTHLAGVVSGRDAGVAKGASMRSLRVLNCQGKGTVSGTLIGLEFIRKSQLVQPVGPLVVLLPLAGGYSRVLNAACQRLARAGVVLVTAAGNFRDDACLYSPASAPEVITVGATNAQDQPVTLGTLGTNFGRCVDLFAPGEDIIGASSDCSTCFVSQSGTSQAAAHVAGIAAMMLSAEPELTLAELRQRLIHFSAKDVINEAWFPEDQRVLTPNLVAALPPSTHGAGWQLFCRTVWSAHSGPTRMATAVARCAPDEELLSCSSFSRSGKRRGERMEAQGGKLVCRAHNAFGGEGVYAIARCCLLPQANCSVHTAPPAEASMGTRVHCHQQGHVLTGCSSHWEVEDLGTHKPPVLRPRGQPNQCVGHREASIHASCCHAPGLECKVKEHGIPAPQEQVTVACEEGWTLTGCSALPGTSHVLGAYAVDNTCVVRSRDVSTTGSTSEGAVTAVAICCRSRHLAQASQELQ
PCSK9/LDLR, sequence (Q8NBP7 31-152 limits assumed): as the sequence (Q8NBP7 31-152 limits assumed) above
PCSK9/LDLR, sequence (Q8NBP7 153-692 limits assumed): as the sequence (Q8NBP7 153-692 limits assumed) above
PCSK9/LDLR, sequence (P01130 22-860 partner limits assumed): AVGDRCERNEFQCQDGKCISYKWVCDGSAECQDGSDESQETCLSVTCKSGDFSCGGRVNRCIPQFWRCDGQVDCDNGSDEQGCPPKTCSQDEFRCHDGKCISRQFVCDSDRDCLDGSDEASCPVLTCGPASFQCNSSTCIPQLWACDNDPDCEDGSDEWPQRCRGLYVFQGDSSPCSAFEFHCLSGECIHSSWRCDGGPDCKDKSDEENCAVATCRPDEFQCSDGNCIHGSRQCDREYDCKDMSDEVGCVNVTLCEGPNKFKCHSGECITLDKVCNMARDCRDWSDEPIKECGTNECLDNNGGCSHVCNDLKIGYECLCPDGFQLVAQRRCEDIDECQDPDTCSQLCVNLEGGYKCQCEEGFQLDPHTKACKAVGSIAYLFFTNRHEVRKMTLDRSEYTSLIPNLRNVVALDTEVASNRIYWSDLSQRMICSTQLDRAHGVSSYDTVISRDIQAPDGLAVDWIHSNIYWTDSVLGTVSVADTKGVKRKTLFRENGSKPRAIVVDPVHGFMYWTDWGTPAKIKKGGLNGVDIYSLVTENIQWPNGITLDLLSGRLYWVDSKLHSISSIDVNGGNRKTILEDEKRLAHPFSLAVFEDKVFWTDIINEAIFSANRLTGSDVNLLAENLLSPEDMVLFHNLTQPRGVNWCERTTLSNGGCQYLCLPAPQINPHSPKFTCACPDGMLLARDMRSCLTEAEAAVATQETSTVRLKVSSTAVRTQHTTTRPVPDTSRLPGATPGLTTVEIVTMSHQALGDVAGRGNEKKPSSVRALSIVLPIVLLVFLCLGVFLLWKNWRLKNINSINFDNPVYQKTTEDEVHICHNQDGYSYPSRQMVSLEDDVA

Ki [1] [nM]	remaining at 1 h, 100 µM [2] [%]	remaining at 1 h, 100 µM [3] [%]	half-life at 100 µM [4] [h]	remaining at 1 h, 100 µM (Chymotrypsinogen A) [%]	half-life at 100 µM [5] [h]	remaining at 1 h, 100 µM [6] [%]	clearance [7] [mL/min/kg]	AUC [8] [µM·h]	Vd [9] [L/kg]	fraction unbound at 4 h, 2.5 µM [10]	Ki (PCSK9/LDLR) [nM]	half-life [11] [h]	AUC(0-inf) [12] [µM·h]	EC50 [14, 21] [nM]	Structure (SMILES)	Activity [13]	further results
4.2	79.5	93.7	> 6	42.7	3.1	99.1	24.2	0.491	0.29	0.0077	23.3	0.78	0.492	–	C[C@H]1NC(=O)[C@H](CCCCN)NC(=O)CCSCc2cccc(c2)CSCCNC(=O)[C@]2(C)CCCN2C(=O)[C@H](Cc2ccc(O)cc2)NC(=O)[C@H](Cc2cnc[nH]2)NC(=O)[C@H](CC(=O)O)NC(=O)[C@H](Cc2c[nH]c3ccc(F)cc23)NC(=O)[C@H](Cc2c[nH]c3ccc(F)cc23)NC1=O	–	–
2.1	95.9	98.1	–	100	> 6	100	–	0.171	0.37	0.0167	–	1.6	–	3120	C[C@H]1NC(=O)[C@H](CCCCN)NC(=O)CCSCc2cccc(c2)CSC[C@@H](C(N)=O)NC(=O)[C@]2(C)CCCN2C(=O)[C@H](Cc2ccc(O)cc2)NC(=O)[C@H]([C@@H](C)O)NC(=O)[C@@H]2C[C@H](F)CN2C(=O)[C@H](Cc2c[nH]c3ccc(F)cc23)NC(=O)[C@H](Cc2c[nH]c3ccc(F)cc23)NC1=O	Non-Toxic	AUC ([12]; mouse): 0.17152 µM·h
6.3	94.3	100	–	76.4	> 6	100	4.62	2.49	0.1	0.001	17.6	0.25	2.51	–	CC(C)[C@H]1NC(=O)[C@H](CCCCN)NC(=O)CCSCc2cccc(c2)CSCCNC(=O)[C@]2(C)CCCN2C(=O)[C@H](Cc2ccc(O)cc2)NC(=O)[C@H](Cc2cnc[nH]2)NC(=O)[C@H](CC(=O)O)NC(=O)[C@H](Cc2c[nH]c3ccc(F)cc23)NC(=O)[C@H](Cc2c[nH]c3ccc(F)cc23)NC1=O	–	–

The next lines start with the compound.

Structure (SMILES)	Ki [1] [nM]	remaining at 1 h, 100 µM [2] [%]	remaining at 1 h, 100 µM [3] [%]	half-life at 100 µM [4] [h]	remaining at 1 h, 100 µM (Chymotrypsinogen A) [%]	half-life at 100 µM [5] [h]	remaining at 1 h, 100 µM [6] [%]	clearance [7] [mL/min/kg]	AUC [8] [µM·h]	Vd [9] [L/kg]	fraction unbound at 4 h, 2.5 µM [10]	Ki (PCSK9/LDLR) [nM]	half-life [11] [h]	AUC(0-inf) [12] [µM·h]	EC50 [14, 21] [nM]	Activity [13]	further results
COc1ccc(C[C@@H]2NC(=O)[C@H]([C@@H](C)OC)NC(=O)[C@@H]3CCC(=O)NCc4cccc(c4)C[C@H](NC(=O)[C@@H](C)NC(=O)[C@H](C)NC(=O)CCSCc4cccc(c4)CSCCNC(=O)[C@]4(C)CCCN4C2=O)C(=O)N[C@@H](Cc2c[nH]c4ccc(F)cc24)C(=O)N3C)cc1	10.6	97.6	94.4	> 6	95.7	> 6	98.8	–	–	–	–	–	–	–	–	–	–
NCCCC[C@@H]1NC(=O)CCSCc2cccc(c2)CSC[C@@H](C(N)=O)NC(=O)[C@@H]2CCCN2C(=O)[C@H](Cc2ccc(O)cc2)NC(=O)[C@H](Cc2c[nH]cn2)NC(=O)[C@H](CC(=O)O)NC(=O)[C@H](Cc2c[nH]c3ccc(F)cc23)NC(=O)[C@H](Cc2c[nH]c3ccc(F)cc23)NC(=O)CNC1=O	–	1.2	95	–	12	1.05	60.7	51.7	0.241	0.7	0.0498	110	1.04	0.242	6670	Non-Toxic	–
COc1ccc(C[C@@H]2NC(=O)[C@H]([C@@H](C)O)NC(=O)[C@@H]3CCC(=O)NCc4cccc(c4)C[C@H](NC(=O)[C@@H](C)NC(=O)[C@H](C)NC(=O)CCSCc4cccc(c4)CSCCNC(=O)[C@]4(C)CCCN4C2=O)C(=O)N[C@@H](Cc2c[nH]c4ccc(F)cc24)C(=O)N3)cc1	1.5	100	98.2	1.88	2.5	> 6	100	16	0.84	0.23	0.015	–	0.66	0.841	–	–	–
C[C@@]12CCCN1C(=O)[C@H](Cc1ccc(O)cc1)NC(=O)[C@H](Cc1cnc[nH]1)NC(=O)[C@H](CC(=O)O)NC(=O)[C@H](Cc1c[nH]c3ccc(F)cc13)NC(=O)[C@H](Cc1c[nH]c3ccc(F)cc13)NC(=O)CNC(=O)[C@H](CCCCN)NC(=O)CCSCc1cccc(c1)CSC[C@@H](C(N)=O)NC2=O ([Mpa]KG[Trp(5-F)][Trp(5-F)]DHY[αMeP]C-NH2; linker 1-10 via mXylylene)	4	0.9	94	> 6	10.9	5.19	52.7	65.4	0.185	1.2	0.0515	14	0.33	0.181	6670	Non-Toxic	–
CO[C@H](C)[C@@H]1NC(=O)[C@@H]2CCCN2C(=O)[C@H](Cc2c[nH]c3ccc(F)cc23)NC(=O)[C@H](Cc2c[nH]c3ccc(F)cc23)NC(=O)CNC(=O)[C@H](CCCCN)NC(=O)CCSCc2cccc(c2)CSC[C@@H](C(N)=O)NC(=O)[C@]2(C)CCCN2C(=O)[C@H](Cc2ccc(O)cc2)NC1=O ([Mpa]KG[Trp(5-F)][Trp(5-F)]PT(Me)Y[αMeP]C-NH2; linker 1-10 via mXylylene)	10.1	1.2	99.5	3.1	91	1.03	56	–	–	–	–	–	–	–	–	–	–
COc1ccc(C[C@@H]2NC(=O)[C@H](Cc3cnc[nH]3)NC(=O)[C@H](CC(=O)O)NC(=O)[C@H](Cc3c[nH]c4ccc(F)cc34)NC(=O)[C@H](Cc3c[nH]c4ccc(F)cc34)NC(=O)[C@@H](C)NC(=O)[C@H](CCCC[N+](C)(C)C)NC(=O)CCSCc3cccc(c3)CSCCNC(=O)[C@]3(C)CCCN3C2=O)cc1 (cyclo(DHY(Me)[αMeP][X1][Lys(Me3)][dA][Trp(5-F)][Trp(5-F)]))	9.5	98.4	87.5	–	24.2	> 6	68.2	6.2	0.896	0.45	0.007	–	1.16	0.933	–	Non-Toxic	fraction unbound [15]: 0.001; Vd [16]: 0.17 L/kg; half-life [17]: 2.46 h; AUC [18]: 3.65 µM·h; EC50 ([14]; mast cell): Non-Toxic; AUC(0-inf) [19]: 3.65 µM·h; clearance [20]: 3.16 mL/min/kg
C[C@H]1NC(=O)[C@H](CCCCN)NC(=O)CCSCc2cc(F)cc(c2)CSCCNC(=O)[C@]2(C)CCCN2C(=O)[C@H](Cc2ccc(O)cc2)NC(=O)[C@H](Cc2cnc[nH]2)NC(=O)[C@H](CC(=O)O)NC(=O)[C@H](Cc2c[nH]c3ccc(F)cc23)NC(=O)[C@H](Cc2c[nH]c3ccc(F)cc23)NC1=O (cyclo(DHY[αMeP][X3]K[dA][Trp(5-F)][Trp(5-F)]))	1.5	91	96.6	> 6	20.1	> 6	96.5	–	–	–	–	–	–	–	–	–	–
